Laboratory results as given in patent US20110053907A1, “SUBSTITUTED PYRIMIDINES AND TRIAZINES AND THEIR USE IN CANCER THERAPY” (Auckland UniServices Limited, priority 2008, published 2011).
Entries after “also recorded” stand apart in the source; their conditions may differ. One block for each compound: values may come before it.

Legend:
NZOV9 = test: Cellular growth inhibition, 3H-thymidine incorporation; type: cell-based, human; settings: five days, 3H-thymidine over last 6 hrs; fifth data column
Description: The compounds were evaluated against two early passage human cell lines NZB5 and NZOV9 (Marshall et al., Oncol. Res. 2004, 14, 297). The cells were grown in ITS medium (α-modified minimal essential medium supplemented insulin, transferrin, selenite, and 5% fetal bovine serum) and grown on 96-well tissue culture plates under an atmosphere of 5% O2, 5% CO2, and 90% N2. Individual wells contained 500-1,000 cells (depending on the growth rate) in a volume of 150 μL. Compounds were added at 10-fold concentration steps to a maximum of 20 μM and plates were incubated for five days, with ^3H-thymidine being added over the last 6 hrs. Cells were harvested and incorporated radioactivity measured. Duplicate samples were analyzed for each compound dose with multiple control samples. Data were fitted by a least-squares method to an exponential of the form y=y0+ae^−bx, where y is the radioactivity (corrected for background and normalized to 100% of the control), x is the […], and y0, a, and b are variables, and the IC50 value defined as the compound concentration reducing ^3H-thymidine levels by 50%.

[1] = tested on: PI 3-kinase in 3T3L1 adipocytes; test: Cellular irreversibility assay, insulin-stimulated phosphoSer473 PKB Western blot with and without washout; type: cell-based
Description: Fully differentiated 3T3L1 adipocytes were starved overnight without serum. The following day, cells were incubated for 60 min with wortmannin (100 nM) as the positive control, LY 294002 (5 μM) as the negative control, the test compounds (1 μM), or DMSO.
To test for irreversibility, cells were then either: 1) rinsed 3 times with warm medium and incubated without an inhibitor for 30 min; or 2) maintained in the same medium containing an inhibitor.
Cells were subsequently stimulated or not with insulin (100 nM, 10 min). Finally, cells were washed twice with ice-cold Phosphate Buffer Saline (PBS) (140 mM NaCl, 3 mM KCl, 6 mM Na2HPO4, 1 mM KH2PO4 (pH 7.4)) and solubilized with a lysis buffer (20 mM Tris-HCl, 138 mM NaCl, 2.7 mM KCl, 1 mM MgCl2, 1 mM CaCl2, 5% (v/v) glycerol, 1% (v/v) Nonidet P-40 (NP40), 5 mM EDTA, 20 μM leupeptin, 18 μM pepstatin, 1 mM AEBSF, 4 μg/mL aprotinin, 2 mM Na3VO4, 20 mM NaF, 1 mM DTT (pH7.4)). Lysates were kept on ice for 20 min and insoluble material was removed by centrifugation at 14,000 g for 10 min. Protein concentration was determined by colorimetric assay (BCA, Pierce).
Proteins were separated by SDS-PAGE and transferred to polyvinylidene difluoride (PVDF) membranes (Pall Corporation, USA). The membranes were incubated for 1 hr in a blocking buffer (20 mM Tris (pH 7.4), 137 mM NaCl, 0.5% (v/v) Tween 20) containing 3% (w/v) BSA (ICP Bio, Auckland, New Zealand) or non-fat milk, and then incubated overnight in the blocking buffer containing specific antibodies (phosphoSer473 PKB and total PKB) Immunoreactive proteins were detected using horseradish peroxidase-linked secondary antibodies (Dako) and enhanced chemiluminescence (ECL) according to the manufacturer's instructions (GE Healthcare, Inc.). Signals were analyzed and quantified using Fuji LAS-3000 phosphorimager and Fuji Image Gauge software.
Overnight-starved 3T3L1 adipocytes cells were incubated for 60 min with compound of Example 4 at 1 μM (lanes 7-12). […]

human tumour xenografts = settings: mouse, in vivo; cited from earlier work

Compound: N-[(3S)-1-(chloroacetyl)piperidinyl]-4-[2-(difluoromethyl)-4-methoxy-1H-benzimidazol-1-yl]-N-methyl-6-(4-morpholinyl)-1,3,5-triazin-2-amine [Example 40]
IC50 (NZOV9): < 100 nM

melting point: 241 to 243 °C
Compound: COc1cccc2c1nc(C(F)F)n2-c1nc(N2CCOCC2)nc(N2CCN(C(=O)CCl)CC2)n1 [Example 4, 1-[4-[4-(Chloroacetyl)-1-piperazinyl]-6-(4-morpholinyl)-1,3,5-triazin-2-yl]-2-(difluoromethyl)-4-methoxy-1H-benzimidazole]
insulin-stimulated phosphorylation of PKB (phosphoSer473) ([1]; 1 μM, 60 min, compound left on cells, insulin 100 nM, 10 min (lanes 7-9)): attenuated
insulin-stimulated phosphorylation of PKB (phosphoSer473) after washout ([1]; 1 μM, 60 min, rinsed 3 times, 30 min without compound, insulin 100 nM, 10 min (lanes 10-12)): attenuated
irreversible binding to PI 3-kinase ([1]; 3T3L1 adipocytes, FIG. 1): irreversible binding; also recorded: irreversibly bound PI 3-kinase in the cells

Compound: O=c1cc(N2CCOCC2)oc2c(-c3ccccc3)cccc12 [LY294002]
tolerability (human tumour xenografts): well-tolerated

Compound: COc1cccc2c1nc(C(F)F)n2-c1nc(N2CCOCC2)nc(N(C)[C@@H]2CCCN(C(=O)CCl)C2)n1 [Example 39, N-[(3R)-1-(chloroacetyl)piperidinyl]-4-[2-(difluoromethyl)-4-methoxy-1H-benzimidazol-1-yl]-N-methyl-6-(4-morpholinyl)-1,3,5-triazin-2-amine]
IC50 (NZOV9): < 100 nM
